# Several values for one entry are separate records, joined by “and”; a condition that tells them apart may be missing. Equal values may be shown once.
# Experiment: Mouse body weight, SW48 xenograft study with HRO761
# Format: in vivo
# Experimental: All animal studies were conducted in accordance with ethics and procedures covered by permit BS-2275 and BS-1975 issued by the Kantonales Veterinäramt Basel-Stadt and in strict adherence to guidelines of the Eidgenössisches Tierschutzgesetz and the Eidgenössische Tierschutzverordnung, Switzerland. All animal studies were approved by the internal ethics committee. All animals had access to food and water ad libitum and were identified with transponders. They were housed in a specific-pathogen-free facility in IVC racks under a 12 h–12 h light–dark cycle. To establish cell-line-derived xenograft models, 6–7-week-old female athymic nude (Crl:NU(NCr)-Foxn1^nu) or SCID-BEIGE (CB17.Cg-PrkdcscidLystbg-J/Crl) mice from Charles River were engrafted subcutaneously with 5 million tumour cells in HBSS (H6648, Sigma-Aldrich). For SNU-407, Lovo, IM95, RL95.2, Ishikawa and IGROV-1, the cells were concentrated in 50% Matrigel (354234, Corning). Patient-derived xenografts were induced and expanded by transplantation as previously described. […] For the efficacy experiment, mice were randomized into groups (n = 5–6) for a mean tumour size of 100–150 mm^3. […] Blood samples were collected on day 7 and 91. […] Tumour responses are reported with the measures of tumour volumes from the treatment start. […] Animals were randomized (n = 3) and tumour samples were collected at 0, 1, 4, 8 and 24 h on the first day and then collected 4 h after the last treatment on day 3, 8, 10, 14 (including a 24 h timepoint), 17 and 21. Tumours were excised, weighed, either frozen in liquid nitrogen and cryogenic dry pulverized with the CryoPrep system (model CP-02, Covaris) or processed to FFPE after fixation. […] On day 12, blood samples were collected for PK analysis. On the last day (3 h after the last treatment), tumours were excised, weighed, frozen in liquid nitrogen and cryogenic dry pulverized for PD analysis.
# [1] = HRO761 20mg/kg, day 0 post 1st dose
# [2] = HRO761 40mg/kg, day 0 post 1st dose
# [3] = HRO761 60mg/kg, day 0 post 1st dose
smiles,measurement,setting,value
CCc1c(N2CCN(C(=O)c3ncnc(C)c3O)CC2)c(=O)n2nc(C3=CCOCC3)nc2n1CC(=O)Nc1ccc(C(F)(F)F)cc1Cl [HRO761],"Delta BW change, individual mouse",[1],0%
same,Mean DBW,[1],0.00%
same,Mean DBW,"HRO761 20mg/kg, day 3 post 1st dose",-0.35%
same,"Delta BW change, individual mouse","HRO761 20mg/kg, day 3 post 1st dose, 20 mg/kg",1.24% and 0% (2×) and -0.78% and -2.23%
same,Mean DBW,"HRO761 20mg/kg, day 7 post 1st dose",0.52%
same,"Delta BW change, individual mouse","HRO761 20mg/kg, day 7 post 1st dose, 20 mg/kg",2.07% and 1.26% and 1.16% and -1.17% and -0.74%
same,Mean DBW,"HRO761 20mg/kg, day 10 post 1st dose",1.67%
same,"Delta BW change, individual mouse","HRO761 20mg/kg, day 10 post 1st dose, 20 mg/kg",3.32% and 6.28% and -1.54% and -1.56% and 1.86%
same,Mean DBW,"HRO761 20mg/kg, day 14 post 1st dose",1.33%
same,"Delta BW change, individual mouse","HRO761 20mg/kg, day 14 post 1st dose, 20 mg/kg",1.66% and 5.86% and -2.32% and -0.78% and 2.23%
same,Mean DBW,"HRO761 20mg/kg, day 17 post 1st dose",2.56%
same,Mean DBW,"HRO761 20mg/kg, day 21 post 1st dose",4.75%
same,Mean DBW,"HRO761 20mg/kg, day 24 post 1st dose",2.97%
same,Mean DBW,"HRO761 20mg/kg, day 28 post 1st dose",3.11%
same,Mean DBW,"HRO761 20mg/kg, day 31 post 1st dose",2.34%
same,Mean DBW,"HRO761 20mg/kg, day 35 post 1st dose",3.43%
same,Mean DBW,"HRO761 20mg/kg, day 38 post 1st dose",2.26%
same,Mean DBW,"HRO761 20mg/kg, day 42 post 1st dose",3.84%
same,Mean DBW,"HRO761 20mg/kg, day 45 post 1st dose",3.81%
same,"Delta BW change, individual mouse",[2],0%
same,Mean DBW,[2],0.00%
same,Mean DBW,"HRO761 40mg/kg, day 3 post 1st dose",-0.77%
same,"Delta BW change, individual mouse","HRO761 40mg/kg, day 3 post 1st dose, 40 mg/kg",-0.91% and 0.87% and -5.78% and -3.41% and 5.36%
same,Mean DBW,"HRO761 40mg/kg, day 7 post 1st dose",2.11%
same,"Delta BW change, individual mouse","HRO761 40mg/kg, day 7 post 1st dose, 40 mg/kg",3.18% and 5.63% and -3.25% and -1.14% and 6.13%
same,Mean DBW,"HRO761 40mg/kg, day 10 post 1st dose",1.41%
same,"Delta BW change, individual mouse","HRO761 40mg/kg, day 10 post 1st dose, 40 mg/kg",4.09% and 1.73% and -2.17% and 2.27% and 1.15%
same,Mean DBW,"HRO761 40mg/kg, day 14 post 1st dose",4.08%
same,"Delta BW change, individual mouse","HRO761 40mg/kg, day 14 post 1st dose, 40 mg/kg",5% and 7.36% and -0.36% and 4.17% and 4.21%
same,Mean DBW,"HRO761 40mg/kg, day 17 post 1st dose",3.43%
same,Mean DBW,"HRO761 40mg/kg, day 21 post 1st dose",5.66%
same,Mean DBW,"HRO761 40mg/kg, day 24 post 1st dose",6.90%
same,Mean DBW,"HRO761 40mg/kg, day 28 post 1st dose",6.44%
same,Mean DBW,"HRO761 40mg/kg, day 31 post 1st dose",5.60%
same,Mean DBW,"HRO761 40mg/kg, day 35 post 1st dose",6.99%
same,Mean DBW,"HRO761 40mg/kg, day 38 post 1st dose",6.65%
same,Mean DBW,"HRO761 40mg/kg, day 42 post 1st dose",6.89%
same,Mean DBW,"HRO761 40mg/kg, day 45 post 1st dose",7.16%
same,Mean DBW,"HRO761 40mg/kg, day 49 post 1st dose",8.78%
same,Mean DBW,"HRO761 40mg/kg, day 52 post 1st dose",8.33%
same,Mean DBW,"HRO761 40mg/kg, day 56 post 1st dose",7.63%
same,Mean DBW,"HRO761 40mg/kg, day 59 post 1st dose",8.29%
same,Mean DBW,"HRO761 40mg/kg, day 63 post 1st dose",9.98%
same,Mean DBW,"HRO761 40mg/kg, day 66 post 1st dose",10.38%
same,Mean DBW,"HRO761 40mg/kg, day 70 post 1st dose",8.92%
same,Mean DBW,"HRO761 40mg/kg, day 73 post 1st dose",8.55%
same,Mean DBW,"HRO761 40mg/kg, day 76 post 1st dose",11.97%
same,Mean DBW,"HRO761 40mg/kg, day 79 post 1st dose",7.46%
same,Mean DBW,"HRO761 40mg/kg, day 83 post 1st dose",7.38%
same,Mean DBW,"HRO761 40mg/kg, day 86 post 1st dose",9.81%
same,"Delta BW change, individual mouse",[3],0%
same,Mean DBW,[3],0.00%
same,Mean DBW,"HRO761 60mg/kg, day 3 post 1st dose",-1.52%
same,"Delta BW change, individual mouse","HRO761 60mg/kg, day 3 post 1st dose, 60 mg/kg",-2.98% and 1.63% and -3.35% and -4.6% and 1.71%
same,Mean DBW,"HRO761 60mg/kg, day 7 post 1st dose",-1.16%
same,"Delta BW change, individual mouse","HRO761 60mg/kg, day 7 post 1st dose, 60 mg/kg",-1.7% and -3.27% and 1.26% and -3.35% and 1.28%
same,Mean DBW,"HRO761 60mg/kg, day 10 post 1st dose",-1.23%
same,"Delta BW change, individual mouse","HRO761 60mg/kg, day 10 post 1st dose, 60 mg/kg",-0.43% and -6.94% and 7.11% and -5.02% and -0.85%
same,Mean DBW,"HRO761 60mg/kg, day 14 post 1st dose",0.014%
same,"Delta BW change, individual mouse","HRO761 60mg/kg, day 14 post 1st dose, 60 mg/kg",-0.43% and -2.86% and 6.69% and -4.18% and 0.85%
same,Mean DBW,"HRO761 60mg/kg, day 17 post 1st dose",-0.23%
same,Mean DBW,"HRO761 60mg/kg, day 21 post 1st dose",1.03%
same,Mean DBW,"HRO761 60mg/kg, day 24 post 1st dose",2.43%
same,Mean DBW,"HRO761 60mg/kg, day 28 post 1st dose",5.12%

# Source: publication PMC11078746 (Nature, 2024)
